Test results reported in patent publication US20230226049A1, “ACALABRUTINIB MALEATE DOSAGE FORMS” (Acerta Pharma B.V., priority 2020, published 2023).
Converted amounts (≈) assume the structure as drawn.

Tests used:
[1] = Physicochemical properties of acalabrutinib maleate monohydrate (Table 2)
physchem = conditions: pH 6, water
Description: In addition, the solubility of acalabrutinib maleate was measured in buffered solutions representative of the media used for dissolution of acalabrutinib maleate tablets.

[2] = Two-stage pH shift dissolution of acalabrutinib salts; assay type: physicochemical; conditions: pH shift method, both starting media; FIGS. 11 and 12
Description: Phosphate, oxalate, and maleate salts of acalabrutinib were evaluated using a two-stage in vitro dissolution method known as a pH shift method. The initial medium was either deionized water or a simulated gastric fluid containing hydrochloric acid and sodium chloride and pH adjusted to 1.8. After the salts were in the initial medium for 30 minutes, the medium was then changed to a FaSSIF-V2 medium by addition of a double strength concentrate to give a final pH of 6.5. The FaSSIF-V2 medium contained a sodium phosphate buffer with sodium chloride, sodium taurocholate, and lecithin. The dissolution testing was conducted using USP dissolution apparatus 2 (paddle) operating at 50 RPM at 37 ± 0.5° C. in 250 mL of medium for first 30 minutes and then in 500 mL of medium post-shift. Samples from the dissolution medium were pulled from the aqueous phase at predetermined time points and assayed by HPLC. FIGS. 2 and 3 show the dissolution profiles of the three salts in the simulated gastric fluid/FaSSIF-V2 media and the deionized water/FaSSIF-V2 media, respectively.
In view of the formulation challenges associated with the physical properties of the phosphate and oxalate salts, the maleate salt was re-tested in the previously described pH shift dissolution method after undergoing particle size reduction. […]

Row | pKa ([1]; acidic) | solubility ([1]; aqueous buffer, @ pH 8 Free Base, read-out: Intrinsic solubility) | solubility (physchem) | Dissolution profile relative to unmilled maleate salt [2] | Compound
1 | 12.1 | 48 µg/mL (≈ 103 µM) | < 100 µg/mL | – | CC#CC(=O)N1CCC[C@H]1c1nc(-c2ccc(C(=O)Nc3ccccn3)cc2)c2c(N)nccn12 [acalabrutinib free base, 4-{8-amino-3-[(2S)-1-(but-2-ynoyl)pyrrolidin-2-yl]imidazo[1,5-a]pyrazin-1-yl}-N-(pyridin-2-yl)benzamide]
2 | – | – | – | significantly improved | CC#CC(=O)N1CCC[C@H]1c1nc(-c2ccc(C(=O)Nc3ccccn3)cc2)c2c(N)nccn12.O=C(O)/C=C\C(=O)O [micronized maleate salt]
